# Experimental data from PubChem BioAssay (NCI).
#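 Method: 48-hour compound exposure of cells in 96-well plates, five concentrations, linear interpolation of endpoints. GI50 = concentration required for 50% inhibition of growth. TGI is the concentration that stops growth completely.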
# Legend:
# Assay in all cases: growth of human tumour cells (NCI), 48 h
# OVCAR-3 ovarian = system: OVCAR-3 ovarian
# SK-OV-3 ovarian = system: SK-OV-3 ovarian
# HCT-15 colon = system: HCT-15 colon
# UACC-62 melanoma = system: UACC-62 melanoma
# A498 renal = system: A498 renal
# KM12 colon = system: KM12 colon
# SF-539 CNS = system: SF-539 CNS
# U251 CNS = system: U251 CNS
# UACC-257 melanoma = system: UACC-257 melanoma
# A549 NSCLC = system: A549 NSCLC
Structure (SMILES),TGI (OVCAR-3 ovarian),TGI (SK-OV-3 ovarian),TGI (HCT-15 colon),TGI (UACC-62 melanoma),TGI (A498 renal),TGI (KM12 colon),TGI (SF-539 CNS),TGI (U251 CNS),TGI (UACC-257 melanoma),TGI (A549 NSCLC),GI50 (OVCAR-3 ovarian),GI50 (SK-OV-3 ovarian),GI50 (HCT-15 colon),GI50 (UACC-62 melanoma),GI50 (A498 renal),GI50 (KM12 colon),GI50 (SF-539 CNS),GI50 (UACC-257 melanoma),GI50 (A549 NSCLC),GI50 (U251 CNS)
CC(=O)Nc1ccc(/C=C/c2ccc(NC(=O)Nc3ccc(/C=C/c4ccc(NC(C)=O)cc4S(=O)(=O)O)c(S(=O)(=O)O)c3)cc2S(=O)(=O)O)c(S(=O)(=O)O)c1,> 100 µM,> 100 µM,> 100 µM,> 100 µM,> 100 µM,> 100 µM,> 100 µM,> 100 µM,> 100 µM,> 100 µM,,,,,,,,,,
COCc1nc2c(OC)c(-c3nc4nc(N5CCN(C)CC5)ccc4[nH]3)cc(OC)c2n1C,> 100 µM,> 100 µM,> 100 µM,41.1 µM,,61.6 µM,27.1 µM,61.9 µM,36.4 µM,> 100 µM,,,,,,,,,,
CC1CC2=C(S(=O)(=O)c3ccccc3)CC(S(=O)(=O)c3ccccc3)(S(=O)(=O)c3ccccc3)CC21 (centres undefined),> 100 µM,> 100 µM,> 100 µM,> 100 µM,> 100 µM,> 100 µM,> 100 µM,> 100 µM,> 100 µM,> 100 µM,,,,,,,,,,
COCCCNc1nc(N)c(C#N)c(C#N)c1C#N,> 10 µM,> 10 µM,> 10 µM,> 10 µM,> 10 µM,> 10 µM,> 10 µM,> 10 µM,,> 10 µM,,,,,,,,,,
CCOC(=O)c1ccc(N[C@@H]2c3cc4c(cc3C(c3cc(OC)c(O)c(OC)c3)[C@H]3C(=O)OCC32)OCO4)cc1O (some centres undefined),8.75 µM,2.2 µM,2.54 µM,2.4 µM,2.81 µM,1.47 µM,2.69 µM,,> 100 µM,2.51 µM,,,,,,,,,,
CC1CCCCNC1=S (centres undefined),> 10 µM,> 10 µM,> 10 µM,> 10 µM,> 10 µM,> 10 µM,> 10 µM,> 10 µM,> 10 µM,> 10 µM,,,,,,,,,,
COc1cc2oc(-c3ccc(O)cc3)c(OC)c(=O)c2c(O)c1OC,> 100 µM,> 100 µM,> 100 µM,> 100 µM,> 100 µM,> 100 µM,> 100 µM,> 100 µM,> 100 µM,> 100 µM,> 100 µM,49.6 µM,23.3 µM,79.3 µM,11 µM,78.9 µM,44.1 µM,> 100 µM,58.6 µM,
CCOC(=O)CNC(=O)N(CC)C12CC3CC(CC(C3)C1)C2,287 µM,216 µM,228 µM,218 µM,274 µM,453 µM,251 µM,239 µM,322 µM,602 µM,,,,,,,,,,
COc1ccccc1CNCCCN1C(=O)c2ccc3c4c(ccc(c24)C1=O)C(=O)N(CCCNCCNCCCN)C3=O,5.65 µM,26.3 µM,26.8 µM,3.82 µM,20.1 µM,11.4 µM,9.58 µM,10.1 µM,7.96 µM,13.1 µM,2.16 µM,4.04 µM,12.2 µM,1.68 µM,5.01 µM,3.25 µM,2.88 µM,2.53 µM,3.01 µM,1.17 µM
CCOC(=O)Cn1c(=O)ccn(COCCO)c1=O,> 100 µM,,> 100 µM,,> 100 µM,> 100 µM,> 100 µM,> 100 µM,> 100 µM,> 100 µM,,,,,,,,,,
COc1ccc(S(=O)(=O)c2ccccc2[N+](=O)[O-])cc1,> 100 µM,> 100 µM,> 100 µM,> 100 µM,> 100 µM,> 100 µM,> 100 µM,> 100 µM,> 100 µM,> 100 µM,,,,,,,,,,
C/C(=N/NC(N)=S)c1ccc[nH]1,> 100 µM,> 100 µM,> 100 µM,> 100 µM,> 100 µM,> 100 µM,> 100 µM,> 100 µM,> 100 µM,> 100 µM,,,,,,,,,,
CCC(=O)Oc1ccc2c(c1)c(=O)c1c(NCCCN(C)C)ccc3nnn2c31,21 µM,18.9 µM,15.9 µM,23.5 µM,18.3 µM,18.3 µM,13.9 µM,17 µM,23.4 µM,13.4 µM,,,,,,,,,,
